Measurements published in patent US6180640A, “Di- and tetra-hydroquinoline-indole antimicrobial agents, uses and compositions related thereto” (Sepracor, Inc., priority 1999, dated 2001).
Where two headings read alike, the source gives them in different places.

Legend:
[1] = Pharmacokinetics in rats after i.v. dosing: plasma and tissue content; format: in vivo; conditions: 3.6 mg/kg i.v.; for concentration at 4 h: 3.6 mg/kg, liposomal
Protocol: The pharmacokinetics of the compound were evaluated in two rats after dosing at 3.6 mg/kg i.v using a liposomal formulation (1.8 mg/mL). […] Maximum concentrations of approximately 450 ng/ml were attained in plasma. […] Data on the accumulation of the compound in various tissues of the rats is contained in the table below.

[2] = in vivo; parameters: species or system mice; conditions: mouse, ip
Protocol: Solutions of compounds in 10% w/v hydroxypropyl-β-cyclodextrin in 0.9% w/v saline were prepared. A dose of 40 mg/kg or 120 mg/kg of each compound was administered to mice (5 mice/compound/dose) via intraperitoneal injections.

[3] = test system: methicillin-resistant Staphylococcus aureus; experiment: Topical treatment of infected partial thickness wounds in pigs; format: in vivo, methicillin-resistant Staphylococcus aureus; pigs; conditions: pig wounds, 200 mg of 2% w/w in PEG
Protocol: This Example establishes the efficacy of an antibacterial compound of the present invention in the topical treatment of methicillin-resistant Staphylococcus aureus infections. Partial thickness wounds were made on properly anesthetized young, specific pathogen free female pigs (SPF; Ken-O-Kaw Frams, Windsor, Ill.) weighing 25-30 kg. The wounds were inoculated with methicillin-resistant Staphylococcus aureus (~10^6 CFU/mL). Within 10 minutes of inoculation 200 mg of test compound [2% w/w in polyethylene glycol (PEG)] was applied to each wound. Wounds were cultured on days 1, 2, and 3. Each site was cultured only once. The culture sample was treated with a neutralizer for the antimicrobial active ingredient. The samples were processed as is known in the art to determine the number of colony forming units per mL.

`Brc1ccc2[nH]cc([C@H]3Nc4ccc(C#CCN5CCCCC5)cc4[C@H]4OCC[C@@H]34)c2c1` (relative stereo) [drawing 54] gave a concentration at 4 h ([1]; rat, brain, iv, rat 1, 4 h post dose, read-out: Compound Content in Brain) of 400 ng/g, a concentration at 4 h ([1]; rat, brain, iv, rat 2, 4 h post dose, read-out: Compound Content in Brain) of 400 ng/g and a concentration at 4 h ([1]; rat, kidney, iv, rat 1, 4 h post dose, read-out: Compound Content in Kidney) of 1300 ng/g. The concentration at 4 h ([1]; rat, kidney, iv, rat 2, 4 h post dose, read-out: Compound Content in Kidney) was 2200 ng/g, the concentration at 4 h ([1]; rat, liver, iv, rat 1, 4 h post dose, read-out: Compound Content in Liver) was 3200 ng/g and the concentration at 4 h ([1]; rat, liver, iv, rat 2, 4 h post dose, read-out: Compound Content in Liver) was 3000 ng/g. The concentration at 4 h ([1]; rat, lung, iv, rat 1, 4 h post dose, read-out: Compound Content in Lung) was 12100 ng/g, the concentration at 4 h ([1]; rat, lung, iv, rat 2, 4 h post dose, read-out: Compound Content in Lung) was 10900 ng/g and the concentration at 4 h ([1]; rat, parietal peritoneum, iv, rat 1, 4 h post dose, read-out: Compound Content in Parietal Peritoneum) was 1300 ng/g. The concentration at 4 h ([1]; rat, parietal peritoneum, iv, rat 2, 4 h post dose, read-out: Compound Content in Parietal Peritoneum) was 1600 ng/g, the Cmax ([1]; rat, plasma, iv, rats, liposomal formulation (1.8 mg/mL), read-out: Maximum concentrations in plasma) was about 450 ng/mL and the concentration at 4 h ([1]; rat, thigh muscle, iv, rat 2, 4 h post dose, read-out: Compound Content in Thigh Muscle) was 700 ng/g. The “tolerability of the dose” value ([1]; rats, liposomal formulation) was “well tolerated” and the “decline of plasma concentrations” value ([1]; rats, liposomal formulation, two-compartment open model) was “declined biexponentially”.

For `Clc1ccc2c(c1)[C@H]1OCC[C@H]1[C@H](c1c[nH]c3ccc(Br)cc13)N2` (relative stereo), the survival at 168 h ([2]; 40 mg/kg) was 100% and the survival at 168 h ([2]; 120 mg/kg) was 100%.

In the case of `Brc1ccc2[nH]cc([C@H]3Nc4ccc(C#CCN5CCCCC5)cc4[C@H]4OCC[C@@H]34)c2c1` (relative stereo) [drawing 55], the “Log CFU/mL (mean ± SE)” value ([3]; 24 h) is reported as 5.92 Log CFU/mL, the “Log CFU/mL (mean ± SE)” value ([3]; 48 h) is reported as 5.83 Log CFU/mL and the “Log CFU/mL (mean ± SE)” value ([3]; 72 h) is reported as 5.66 Log CFU/mL.

`Clc1ccc2c(c1)[C@H]1OCC[C@H]1[C@@H](c1c[nH]c3ccc(Br)cc13)N2` (relative stereo) gave a survival at 168 h ([2]; 40 mg/kg) of 100% and a survival at 168 h ([2]; 120 mg/kg) of 100%.
